Test results from ChEMBL document CHEMBL1208701, “Structure-activity relationship of indoline-2-carboxylic acid N-(substituted)phenylamide derivatives” (Bioorg Med Chem Lett, 2010).

How the values were obtained:
RAW264.7 = assay: Inhibition of LPS-induced NF-kappaB transcriptional activity in mouse RAW264.7 cells at 100 uM; format: cell-based
PC-3 = assay: Cytotoxicity against human PC3 cells; format: functional
NCI-H23 = assay: Cytotoxicity against human NCI-H23 cells; format: functional
[1] = Inhibition of LPS-induced NF-kappaB transcriptional activity in mouse RAW264.7 cells; format: cell-based
HCT-15 = assay: Cytotoxicity against human HCT15 cells; format: functional
NUGC-3 = assay: Cytotoxicity against human NUGC3 cells; format: functional
MDA-MB-231 = assay: Cytotoxicity against human MDA-MB-231 cells; format: functional
ACHN = assay: Cytotoxicity against human ACHN cells; format: functional

Row | SMILES | inhibition (RAW264.7) | IC50 [1] | further results
1 | CC(C)(C)OC(=O)N1c2ccccc2CC1C(=O)Nc1ccc(C(F)(F)F)cc1 (stereo unspecified) | > 100% | 12 µM | GI50 (PC-3): 2.02 µM; GI50 (NCI-H23): 3.21 µM
2 | COc1ccccc1NC(=O)C1Cc2ccccc2N1C(=O)OC(C)(C)C (stereo unspecified) | 76% | – | –
3 | CC(C)(C)OC(=O)N1c2ccccc2CC1C(=O)Nc1cc(Cl)ccc1Cl (stereo unspecified) | 71% | 45.9 µM | –
4 | Cc1cccc(NC(=O)C2Cc3ccccc3N2C(=O)OC(C)(C)C)c1 (stereo unspecified) | 87% | – | –
5 | O=C(Nc1cc(Cl)ccc1Cl)C1Cc2ccccc2N1 (stereo unspecified) | 34% | > 100 µM | –
6 | CC(C)(C)OC(=O)N1c2ccccc2CC1C(=O)Nc1ccc(Cl)cc1 (stereo unspecified) | 31% | > 100 µM | –
7 | COc1ccc(NC(=O)C2Cc3ccccc3N2)cc1 (stereo unspecified) | 37% | > 100 µM | –
8 | COc1ccc(NC(=O)C2Cc3ccccc3N2C(=O)OC(C)(C)C)cc1OC (stereo unspecified) | 65% | 52.2 µM | –
9 | O=C(Nc1ccccc1[N+](=O)[O-])C1Cc2ccccc2N1 (stereo unspecified) | 41% | > 100 µM | –
10 | CC(C)(C)OC(=O)N1c2ccccc2CC1C(=O)Nc1cc(Cl)cc(Cl)c1 (stereo unspecified) | – | 10.1 µM | GI50 (PC-3): 1.68 µM; GI50 (NCI-H23): 3.39 µM
11 | CCCCCCCCC(=O)N1c2ccccc2CC1C(=O)Nc1ccc(C(F)(F)F)cc1 (stereo unspecified) | – | > 100 µM | GI50 (HCT-15): 2.07 µM; GI50 (NUGC-3): 3.45 µM; GI50 (MDA-MB-231): > 10 µM; GI50 (PC-3): 1.86 µM; GI50 (ACHN): 3.78 µM; GI50 (NCI-H23): 1.62 µM
12 | O=C(Nc1ccccc1)C1Cc2ccccc2N1 (stereo unspecified) | 65% | 71.6 µM | –
13 | CC(C)(C)OC(=O)N1c2ccccc2CC1C(=O)Nc1ccc(Cl)c(Cl)c1 (stereo unspecified) | 97% | 12.6 µM | GI50 (PC-3): 4.66 µM; GI50 (NCI-H23): 3.19 µM
14 | CC(C)(C)OC(=O)N1c2ccccc2CC1C(=O)Nc1ccccc1[N+](=O)[O-] (stereo unspecified) | 63% | – | –
15 | CC(NC(=O)OC(C)(C)C)C(=O)N1c2ccccc2CC1C(=O)Nc1cc(Cl)cc(Cl)c1 (stereo unspecified) | – | 5.9 µM | GI50 (HCT-15): 4.33 µM; GI50 (NUGC-3): 6.21 µM; GI50 (PC-3): 4.43 µM; GI50 (ACHN): 5.04 µM; GI50 (NCI-H23): 6.71 µM
16 | CC(C)(C)OC(=O)N1c2ccccc2CC1C(=O)Nc1cccc(C(F)(F)F)c1 (stereo unspecified) | > 100% | – | GI50 (PC-3): 3.34 µM; GI50 (NCI-H23): 6.34 µM
17 | CC(C)(C)OC(=O)N1c2ccccc2CC1C(=O)Nc1cc(C(F)(F)F)cc(C(F)(F)F)c1 (stereo unspecified) | – | 14.9 µM | GI50 (PC-3): 0.838 µM; GI50 (NCI-H23): 1.52 µM
18 | O=C(Nc1cccc(Cl)c1)C1Cc2ccccc2N1 (stereo unspecified) | 63% | – | –
19 | O=C(Nc1cccc(C(F)(F)F)c1)C1Cc2ccccc2N1 (stereo unspecified) | 99% | 46 µM | GI50 (PC-3): 4.24 µM; GI50 (NCI-H23): 4.96 µM
20 | COc1ccc(NC(=O)C2Cc3ccccc3N2C(=O)OC(C)(C)C)cc1 (stereo unspecified) | 29% | > 100 µM | –
21 | O=C(Nc1ccc(Cl)cc1)C1Cc2ccccc2N1 (stereo unspecified) | 62% | 70.7 µM | –
22 | O=C(Nc1ccc(O)cc1)C1Cc2ccccc2N1 (stereo unspecified) | 63% | 66.2 µM | –

Row | SMILES | inhibition (RAW264.7) | IC50 [1] | further results
23 | O=C(Nc1ccc(C(F)(F)F)cc1)C1Cc2ccccc2N1 (stereo unspecified) | 56% | 79.2 µM | –
24 | COc1ccc(NC(=O)C2Cc3ccccc3N2)cc1OC (stereo unspecified) | 15% | > 100 µM | –
25 | Cc1ccc(NC(=O)C2Cc3ccccc3N2)cc1C (stereo unspecified) | 87% | 43.3 µM | –
26 | Cc1cccc(NC(=O)C2Cc3ccccc3N2)c1 (stereo unspecified) | 29% | > 100 µM | –
27 | COc1cc(NC(=O)C2Cc3ccccc3N2C(=O)OC(C)(C)C)cc(OC)c1 (stereo unspecified) | 88% | – | –
28 | Cc1ccc(C)c(NC(=O)C2Cc3ccccc3N2)c1 (stereo unspecified) | 47% | > 100 µM | –
29 | Cc1ccccc1NC(=O)C1Cc2ccccc2N1 (stereo unspecified) | 39% | > 100 µM | –
30 | CC(C)(C)OC(=O)N1c2ccccc2CC1C(=O)Nc1ccccc1Cl (stereo unspecified) | 50% | – | –
31 | Cc1ccc(NC(=O)C2Cc3ccccc3N2C(=O)OC(C)(C)C)cc1 (stereo unspecified) | 37% | > 100 µM | –
32 | COc1ccc(OC)c(NC(=O)C2Cc3ccccc3N2C(=O)OC(C)(C)C)c1 (stereo unspecified) | 76% | – | –
33 | O=C(Nc1cccc([N+](=O)[O-])c1)C1Cc2ccccc2N1 (stereo unspecified) | 49% | > 100 µM | –
34 | O=C(Nc1ccc([N+](=O)[O-])cc1)C1Cc2ccccc2N1 (stereo unspecified) | 41% | > 100 µM | –
35 | COc1cc(NC(=O)C2Cc3ccccc3N2)cc(OC)c1 (stereo unspecified) | 41% | > 100 µM | –
36 | CC(C)(C)OC(=O)N1c2ccccc2CC1C(=O)Nc1ccc([N+](=O)[O-])cc1 (stereo unspecified) | > 100% | – | GI50 (PC-3): 2.79 µM; GI50 (NCI-H23): 2.52 µM
37 | O=C(Nc1ccc(C(F)(F)F)cc1)C1Cc2ccccc2N1C(=O)c1ccccc1 (stereo unspecified) | – | 13.5 µM | GI50 (HCT-15): 5.49 µM; GI50 (NUGC-3): 8.72 µM; GI50 (NCI-H23): 4.58 µM
38 | O=C(Nc1cc(C(F)(F)F)cc(C(F)(F)F)c1)C1Cc2ccccc2N1 (stereo unspecified) | 96% | 12 µM | GI50 (PC-3): 0.794 µM; GI50 (NCI-H23): 0.648 µM
39 | O=C(Nc1ccccc1O)C1Cc2ccccc2N1 (stereo unspecified) | 37% | > 100 µM | –
40 | Cc1cc(C)cc(NC(=O)C2Cc3ccccc3N2)c1 (stereo unspecified) | 56% | 85 µM | –
41 | CC(C)(C)OC(=O)N1c2ccccc2CC1C(=O)Nc1cccc(O)c1 (stereo unspecified) | 75% | 58.7 µM | –
42 | COc1cccc(NC(=O)C2Cc3ccccc3N2)c1 (stereo unspecified) | 64% | – | –
43 | O=C(Nc1cc(Cl)cc(Cl)c1)C1Cc2ccccc2N1 (stereo unspecified) | 98% | – | GI50 (PC-3): 2.53 µM; GI50 (NCI-H23): 12.3 µM
44 | Cc1ccccc1NC(=O)C1Cc2ccccc2N1C(=O)OC(C)(C)C (stereo unspecified) | 68% | 62.5 µM | –

Row | SMILES | inhibition (RAW264.7) | IC50 [1] | further results
45 | CC(C)(C)OC(=O)N1c2ccccc2CC1C(=O)Nc1cccc([N+](=O)[O-])c1 (stereo unspecified) | 94% | 14.1 µM | –
46 | O=C(Nc1cccc(O)c1)C1Cc2ccccc2N1 (stereo unspecified) | 30% | > 100 µM | –
47 | Cc1cc(C)cc(NC(=O)C2Cc3ccccc3N2C(=O)OC(C)(C)C)c1 (stereo unspecified) | 78% | 16.6 µM | –
48 | COc1ccc(OC)c(NC(=O)C2Cc3ccccc3N2)c1 (stereo unspecified) | 47% | > 100 µM | –
49 | COc1cc2c(cc1O)CCC(C(=O)Nc1ccccc1)O2 (stereo unspecified) | 90% | 40.1 µM | GI50 (NCI-H23): 9.32 µM
50 | CC(C)(C)OC(=O)N1c2ccccc2CC1C(=O)Nc1ccccc1C(F)(F)F (stereo unspecified) | 38% | > 100 µM | –
51 | Cc1ccc(C)c(NC(=O)C2Cc3ccccc3N2C(=O)OC(C)(C)C)c1 (stereo unspecified) | 75% | 50 µM | –
52 | O=C(Nc1ccc(Cl)c(Cl)c1)C1Cc2ccccc2N1 (stereo unspecified) | 72% | – | GI50 (NCI-H23): 11.6 µM
53 | CC(C)(C)OC(=O)N1c2ccccc2CC1C(=O)Nc1ccccc1O (stereo unspecified) | 93% | – | –
54 | CC(C)(C)OC(=O)N1c2ccccc2CC1C(=O)Nc1ccc(O)cc1 (stereo unspecified) | 42% | > 100 µM | –
55 | CC(C)(C)OC(=O)N1c2ccccc2CC1C(=O)Nc1cccc(Cl)c1 (stereo unspecified) | > 100% | – | GI50 (NCI-H23): 3.23 µM
56 | O=C(Nc1cc(Cl)cc(Cl)c1)C1Cc2ccccc2N1C(=O)c1ccccc1 (stereo unspecified) | – | 46.5 µM | GI50 (NUGC-3): 7.97 µM; GI50 (MDA-MB-231): 6.42 µM; GI50 (PC-3): 6.84 µM; GI50 (ACHN): 8.26 µM; GI50 (NCI-H23): 4.28 µM
57 | CC(C)(C)OC(=O)N1c2ccccc2CC1C(=O)Nc1ccccc1 (stereo unspecified) | 30% | > 100 µM | –
58 | Cc1ccc(NC(=O)C2Cc3ccccc3N2)cc1 (stereo unspecified) | 41% | > 100 µM | –
59 | O=C(Nc1ccccc1C(F)(F)F)C1Cc2ccccc2N1 (stereo unspecified) | 61% | 79.4 µM | –
60 | COc1cccc2c1C(=O)c1c(O)c3c(c(O)c1C2=O)C[C@@](O)(C(=O)CO)C[C@@H]3O[C@H]1C[C@H](N)[C@H](O)[C@H](C)O1 [DOXORUBICIN] | – | – | GI50 (HCT-15): 2.18 µM; GI50 (NUGC-3): 0.202 µM; GI50 (MDA-MB-231): 0.194 µM; GI50 (PC-3): 0.317 µM; GI50 (ACHN): 0.182 µM; GI50 (NCI-H23): 0.178 µM
61 | Cc1ccc(NC(=O)C2Cc3ccccc3N2C(=O)OC(C)(C)C)cc1C (stereo unspecified) | 64% | – | –
62 | COc1ccccc1NC(=O)C1Cc2ccccc2N1 (stereo unspecified) | 60% | 79.2 µM | –
63 | COc1cccc(NC(=O)C2Cc3ccccc3N2C(=O)OC(C)(C)C)c1 (stereo unspecified) | 38% | > 100 µM | –
64 | O=C(Nc1ccccc1Cl)C1Cc2ccccc2N1 (stereo unspecified) | 62% | 69.7 µM | –
